Tests used:
[1] = system: isolated mitochondria; assay: In vitro mitochondria test: H2O2 formation of isolated mitochondria (amplexRed/horseradish peroxidase kinetic test); assay type: biochemical; conditions: for Quantity of H2O2 formed: 5 mM succinate alone = 100.0
Excerpt: A. The Reduced H2O2 Formation of Isolated Mitochondria as In Vitro Parameters for Endogenous Radical Stress:
Mitochondria reduce 95% of the oxygen to water.
Overproduction and/or reduced detoxification of superoxide anion and hydrogen peroxide leads to the development of oxidative stress. This is crucially implicated in neuronal cell death in all kinds of neurodegenerative diseases.
In the presence of the energy substrate succinate, isolated mitochondria produce H2O2, which results from the dismutation of superoxide anion. In the presence of amplexRed™ and horseradish peroxidase, the fluorogenic chromophor resorufin is formed, which is measured and quantified in a kinetic test. The quantity of H2O2 formed by the mitochondria can be increased by the addition of the quinone analogue duroquinone.

[2] = system: aconitase; conditions: mice, oral, 4 days, 2×1 mg/kg/d; brain mitochondria; control (0.9% saline) 100±8%; n=4
Procedure: Mice (C57BL6) were treated with pramipexole by oral route for 4 days in a dose of 2×1 mg/kg KG/d. The animals were then anaesthetised, killed, their brains were removed and the mitochondria (location of the enzyme and site of the radical formation) were isolated. Then the activity was determined by means of a coupled optical test.

SMILES | Quantity of H2O2 formed ([1]; 5 mM succinate + 3 μM duroquinone) [%] | aconitase activity [2] [%] | Quantity of H2O2 formed ([1]; 5 mM succinate + 3 μM duroquinone + 100 μM pramipexole) [%] | duroquinone-induced formation of H2O2 reduced to ([1]; summary of Table 1)
CC1=C(C)C(=O)C(C)=C(C)C1=O [duroquinone] | 152.2 ± 1.4 |  |  | 
CCCNC1CCc2nc(N)sc2C1 (stereo not shown) [pramipexole, 2-amino-4,5,6,7-tetrahydro-6-n-propylamino-benzothiazole] |  | 153±16 | 58.3 ± 24.6 | 50-60%

Source: patent US20040122068A1, “Pramipexole for the treatment of HIV dementia” (Boehringer Ingelheim Pharma GmbH & Co. KG, priority 2002, published 2004)
